Earlier results, collected in publication PMC6318333, “A chemical biology toolbox to study protein methyltransferases and epigenetic signaling” (Nature Communications, 2019).

Molecular target: T1, SMYD3 (Homo sapiens, UniProt Q9H7B4)
T1 sequence (Q9H7B4 1-428): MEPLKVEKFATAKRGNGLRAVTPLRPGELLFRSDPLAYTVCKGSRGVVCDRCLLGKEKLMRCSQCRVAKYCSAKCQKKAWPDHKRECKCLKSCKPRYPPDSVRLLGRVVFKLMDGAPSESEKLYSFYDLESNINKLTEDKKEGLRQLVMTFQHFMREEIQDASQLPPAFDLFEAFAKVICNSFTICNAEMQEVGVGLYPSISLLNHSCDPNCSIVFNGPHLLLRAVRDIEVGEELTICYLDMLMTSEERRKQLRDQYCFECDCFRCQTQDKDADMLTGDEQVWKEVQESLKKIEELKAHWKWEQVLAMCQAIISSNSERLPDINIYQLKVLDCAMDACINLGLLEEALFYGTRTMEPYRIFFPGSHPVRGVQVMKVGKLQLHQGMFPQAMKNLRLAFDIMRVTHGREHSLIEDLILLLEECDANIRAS
Assay: biochemical methyltransferase assay with recombinant protein
Conditions: read-out: In vitro IC50 or Kd

IC50: 88 nM
Substance: BAY-6035
